Laboratory results reported in patent publication US4327097A, “Novel penicillins” (Toyama Chemical Co., Ltd., priority 1974, dated 1982).
In brackets after ≈: the same amount, converted by molar mass.

Assays:
Proteus morganii = assay: MIC against clinical isolates; type: cell-based; details: Table 6-5, clinical isolate; unit assumed
[1] = target: T1, β-lactamase, Proteus vulgaris GN 76 (Proteus vulgaris, UniProt P52664); assay: Resistant activity against β-lactamase, iodometric assay; type: biochemical; details: control Cephalorizine = 100
T1 construct: By using the supernatant of enzyme fluid; endogenous in cells; host or cells: Proteus vulgaris GN 76 (penicillin G-induced cells, sonicated, 15,000 r.p.m. supernatant)
Procedure: (§1) (4) Resistant activity of each cephalosporin compound against β-lactamase, Proteus vulgaris GN 76 and Escherichia freundii GN 346:
(§2) The resistant activity of each cephalosporin compound against β-lactamase was measured in the manner described below.
(§3) β-lactamase was prepared from Proteus vulgaris GN 76 and Escherichia freundii GN 346. 10 ml of an overnight culture in Heart Infusion broth was diluted with 100 ml of a medium containing 2 g of yeast extract, 10 g of polypeptone, 2 g of glucose, 7 g of disodium hydrogen phosphate, 2 g of potassium dihydrogen phosphate, 1.2 g of ammonium sulfate and 0.4 g of magnesium sulfate, per liter, and incubated with shaking at 37° C. After incubation of 2 hrs, Penicillin G (50 μg/ml) was added as the inducer, and further incubated for 2 hrs. The resulting cells were collected by centrifugation (5,000 r.p.m.×10 min.) and washed two times with 0.1 M phosphate buffer (pH 7.0). Subsequently, the cells were subjected to sonication (20 KHz, 5 min.) and then centrifuged at 15,000 r.p.m. for 60 min. By using the supernatant of enzyme fluid, the stability of each compound against β-lactamase was determined by the iodometric assay method. Each numeral shown in Table 7-2 is a relative activity value calculated by assuming as 100 the activity of the control Cephalorizine.

[2] = target: β-lactamase, Escherichia freundii GN 346 (Citrobacter freundii, UniProt Q46041); assay: as above; type: biochemical; details: control Cephalorizine = 100
Procedure: as §1, §2, §3

Escherichia coli NIHJ = assay: MIC, plate method, standard strains; type: cell-based; details: Table 4, standard strain; unit assumed
Summary of the method: (§4)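 Test compound was incorporated into Heart infusion agar at pH 7.4, plates were inoculated with 10^4 cells each (suspension at 10^6 cells/ml), and the minimum inhibitory concentration was recorded.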

Proteus vulgaris 3027 = assay: MIC, plate method, standard strains; type: cell-based; details: Table 4, standard strain; unit assumed
Summary of the method: as §4

[3] = test system: Staphylococcus aureus 209p; assay: MIC, plate method, standard strains; type: cell-based; details: Table 4, standard strain; unit assumed
Summary of the method: as §4

Klebsiella pneumoniae [4] = assay: MIC, plate method, standard strains; type: cell-based; details: Table 4, standard strain; unit assumed
Summary of the method: as §4

[5] = test system: Pseudomonas aeruginosa I.F.O.; assay: MIC, plate method, standard strains; type: cell-based; details: Table 4, standard strain; unit assumed
Summary of the method: as §4

Proteus mirabilis = assay: MIC against clinical isolates; type: cell-based; details: Table 6-5, clinical isolate; unit assumed
Escherichia coli = assay: MIC against clinical isolates; type: cell-based; details: Table 6-2, clinical isolate; unit assumed
Pseudomonas aeruginosa = assay: MIC against clinical isolates; type: cell-based; details: unit assumed; for MIC Pseudomonas aeruginosa GN / MIC Pseudomonas aeruginosa GN4 / MIC Pseudomonas aeruginosa GN 82 / MIC Pseudomonas aeruginosa GN 221 / MIC Pseudomonas aeruginosa GN 376 / MIC Pseudomonas aeruginosa GN 1035 / MIC Pseudomonas aeruginosa GN 1091 / MIC Pseudomonas aeruginosa GN 2565: Table 6-3, clinical isolate; for MIC Pseudomonas aeruginosa GN: strain number not given; for MIC Pseudomonas aeruginosa S-1: Table 6-4, clinical isolate
Proteus rettgeri = assay: MIC against clinical isolates; type: cell-based; details: Table 6-5, clinical isolate; unit assumed
Staphylococcus aureus = assay: MIC against clinical isolates; type: cell-based; details: Table 6-1, clinical isolate; unit assumed
Proteus vulgaris = assay: MIC against clinical isolates; type: cell-based; details: Table 6-5, clinical isolate; unit assumed
Klebsiella pneumoniae [6] = assay: MIC against clinical isolates; type: cell-based; details: Table 6-4, clinical isolate; unit assumed

Chain of β-lactamase, Escherichia freundii GN 346 (Q46041 entry or part of it): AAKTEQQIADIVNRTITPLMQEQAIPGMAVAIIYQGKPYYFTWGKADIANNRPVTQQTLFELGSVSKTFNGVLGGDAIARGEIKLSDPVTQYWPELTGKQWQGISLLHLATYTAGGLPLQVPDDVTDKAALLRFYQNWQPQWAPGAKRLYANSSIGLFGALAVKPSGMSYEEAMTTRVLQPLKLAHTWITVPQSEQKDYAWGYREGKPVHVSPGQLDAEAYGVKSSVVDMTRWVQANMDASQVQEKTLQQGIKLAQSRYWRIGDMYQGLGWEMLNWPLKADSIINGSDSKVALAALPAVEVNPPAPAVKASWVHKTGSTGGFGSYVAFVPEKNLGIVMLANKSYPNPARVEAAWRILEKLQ
T1 sequence (P52664 30-300): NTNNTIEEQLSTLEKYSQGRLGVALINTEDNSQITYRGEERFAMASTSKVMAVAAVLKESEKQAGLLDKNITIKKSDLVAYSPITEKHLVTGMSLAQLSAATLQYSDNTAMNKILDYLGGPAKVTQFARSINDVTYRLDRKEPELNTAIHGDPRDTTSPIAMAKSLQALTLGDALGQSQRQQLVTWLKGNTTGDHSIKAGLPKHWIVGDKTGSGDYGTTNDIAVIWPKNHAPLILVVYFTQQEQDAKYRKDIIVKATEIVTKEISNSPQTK

Row | Compound | MIC Proteus morganii (Proteus morganii) [µg/mL] | MIC Escherichia coli NIHJ (Escherichia coli NIHJ) [µg/mL] | MIC Proteus vulgaris 3027 (Proteus vulgaris 3027) [µg/mL] | MIC Staphylococcus aureus 209p [3] [µg/mL] | MIC Klebsiella pneumoniae (Klebsiella pneumoniae [4]) [µg/mL] | MIC Pseudomonas aeruginosa I.F.O. [5] [µg/mL] | MIC Proteus mirabilis (Proteus mirabilis) [µg/mL] | MIC Escherichia coli GN 3435 (Escherichia coli) [µg/mL] | MIC Escherichia coli GN 3452 (Escherichia coli) [µg/mL] | MIC Escherichia coli GN 3465 (Escherichia coli) [µg/mL] | MIC Escherichia coli K-2 (Escherichia coli) [µg/mL] | MIC Escherichia coli K-4 (Escherichia coli) [µg/mL] | MIC Pseudomonas aeruginosa GN (Pseudomonas aeruginosa) [µg/mL] | MIC Pseudomonas aeruginosa GN4 (Pseudomonas aeruginosa) [µg/mL] | MIC Pseudomonas aeruginosa GN 82 (Pseudomonas aeruginosa) [µg/mL] | MIC Pseudomonas aeruginosa GN 221 (Pseudomonas aeruginosa) [µg/mL] | MIC Pseudomonas aeruginosa GN 376 (Pseudomonas aeruginosa) [µg/mL] | MIC Pseudomonas aeruginosa GN 1035 (Pseudomonas aeruginosa) [µg/mL] | MIC Pseudomonas aeruginosa GN 1091 (Pseudomonas aeruginosa) [µg/mL] | MIC Pseudomonas aeruginosa GN 2565 (Pseudomonas aeruginosa) [µg/mL] | further results
1 | CCCCN1CCN(C(=O)NC(C(=O)NC2C(=O)N3C(C(=O)O)=C(CSc4nnnn4C)CSC23)c2ccccc2)C(=O)C1=O (single isomer, unassigned) [Compound No. 73] | 0.78 (≈ 1.19 µM) | < 0.1 | 1.57 (≈ 2.39 µM) | 1.57 (≈ 2.39 µM) | 0.2 (≈ 0.304 µM) | 25 (≈ 38 µM) | 0.39 (≈ 0.593 µM) | 0.78 (≈ 1.19 µM) | 0.78 (≈ 1.19 µM) | 1.56 (≈ 2.37 µM) | 1.56 (≈ 2.37 µM) | 0.78 (≈ 1.19 µM) | 12.5 (≈ 19 µM) | 12.5 (≈ 19 µM) | 12.5 (≈ 19 µM) | 12.5 (≈ 19 µM) | 12.5 (≈ 19 µM) | 50 (≈ 76 µM) | 12.5 (≈ 19 µM) | 25 (≈ 38 µM) | Relative activity (%) against β-lactamase, Pr. vulgaris GN 76 [1]: 4%; Relative activity (%) against β-lactamase, E. freundii GN 346 [2]: 0.1%; MIC Pseudomonas aeruginosa S-1 (Pseudomonas aeruginosa): 50 µg/mL (≈ 76 µM); MIC Proteus rettgeri (Proteus rettgeri): 3.13 µg/mL (≈ 4.76 µM); MIC Staphylococcus aureus F-1 (Staphylococcus aureus): 1.56 µg/mL (≈ 2.37 µM); MIC Staphylococcus aureus MS 8588 (Staphylococcus aureus): 1.56 µg/mL (≈ 2.37 µM); MIC Staphylococcus aureus MS 8596 (Staphylococcus aureus): 3.13 µg/mL (≈ 4.76 µM); MIC Staphylococcus aureus MS 8619 (Staphylococcus aureus): 1.56 µg/mL (≈ 2.37 µM); MIC Staphylococcus aureus MS 8684 (Staphylococcus aureus): 1.56 µg/mL (≈ 2.37 µM); MIC Proteus vulgaris (Proteus vulgaris): 0.78 µg/mL (≈ 1.19 µM); MIC Klebsiella pneumoniae GN 917 (Klebsiella pneumoniae [6]): 0.78 µg/mL (≈ 1.19 µM); MIC Klebsiella pneumoniae GN 4081 (Klebsiella pneumoniae [6]): 1.56 µg/mL (≈ 2.37 µM)
2 | CCCCCCCCN1CCN(C(=O)N[C@@H](C(=O)NC2C(=O)N3C(C(=O)O)=C(CSc4nnnn4C)CSC23)c2ccccc2)C(=O)C1=O (single isomer, unassigned) [Compound No. 74] | 0.78 (≈ 1.09 µM) | 0.2 (≈ 0.28 µM) | 1.57 (≈ 2.2 µM) | 1.57 (≈ 2.2 µM) | 0.79 (≈ 1.11 µM) | 12.5 (≈ 17.5 µM) | 0.39 (≈ 0.546 µM) | 0.78 (≈ 1.09 µM) | 1.56 (≈ 2.19 µM) | 1.56 (≈ 2.19 µM) | 3.13 (≈ 4.38 µM) | 1.56 (≈ 2.19 µM) | 25 (≈ 35 µM) | 50 (≈ 70 µM) | 25 (≈ 35 µM) | 50 (≈ 70 µM) | 50 (≈ 70 µM) | 25 (≈ 35 µM) | 25 (≈ 35 µM) | 50 (≈ 70 µM) | Relative activity (%) against β-lactamase, Pr. vulgaris GN 76 [1]: 5%; Relative activity (%) against β-lactamase, E. freundii GN 346 [2]: 0.03%; MIC Pseudomonas aeruginosa S-1 (Pseudomonas aeruginosa): 50 µg/mL (≈ 70 µM); MIC Proteus rettgeri (Proteus rettgeri): 6.25 µg/mL (≈ 8.76 µM); MIC Staphylococcus aureus F-1 (Staphylococcus aureus): 0.78 µg/mL (≈ 1.09 µM); MIC Staphylococcus aureus MS 8588 (Staphylococcus aureus): 0.78 µg/mL (≈ 1.09 µM); MIC Staphylococcus aureus MS 8596 (Staphylococcus aureus): 0.78 µg/mL (≈ 1.09 µM); MIC Staphylococcus aureus MS 8619 (Staphylococcus aureus): 0.78 µg/mL (≈ 1.09 µM); MIC Staphylococcus aureus MS 8684 (Staphylococcus aureus): 0.78 µg/mL (≈ 1.09 µM); MIC Proteus vulgaris (Proteus vulgaris): 0.78 µg/mL (≈ 1.09 µM); MIC Klebsiella pneumoniae GN 917 (Klebsiella pneumoniae [6]): 1.56 µg/mL (≈ 2.19 µM); MIC Klebsiella pneumoniae GN 4081 (Klebsiella pneumoniae [6]): 1.56 µg/mL (≈ 2.19 µM)
3 | CCN1CCN(C(=O)NC(C(=O)NC2C(=O)N3C(C(=O)O)=C(CSc4nnnn4CC)CSC23)c2ccccc2)C(=O)C1=O (single isomer, unassigned) [Compound No. 77] | 1.56 (≈ 2.42 µM) | < 0.1 | 1.57 (≈ 2.44 µM) | 1.57 (≈ 2.44 µM) | 0.4 (≈ 0.621 µM) | 25 (≈ 38.8 µM) | 1.56 (≈ 2.42 µM) | 1.56 (≈ 2.42 µM) | 1.56 (≈ 2.42 µM) | 6.25 (≈ 9.71 µM) | 3.13 (≈ 4.86 µM) | 1.56 (≈ 2.42 µM) | 25 (≈ 38.8 µM) | 25 (≈ 38.8 µM) | 25 (≈ 38.8 µM) | 12.5 (≈ 19.4 µM) | 25 (≈ 38.8 µM) | 50 (≈ 77.7 µM) | 25 (≈ 38.8 µM) | 50 (≈ 77.7 µM) | MIC Pseudomonas aeruginosa S-1 (Pseudomonas aeruginosa): 50 µg/mL (≈ 77.7 µM); MIC Proteus rettgeri (Proteus rettgeri): 1.56 µg/mL (≈ 2.42 µM); MIC Staphylococcus aureus F-1 (Staphylococcus aureus): 1.56 µg/mL (≈ 2.42 µM); MIC Staphylococcus aureus MS 8588 (Staphylococcus aureus): 1.56 µg/mL (≈ 2.42 µM); MIC Staphylococcus aureus MS 8596 (Staphylococcus aureus): 1.56 µg/mL (≈ 2.42 µM); MIC Staphylococcus aureus MS 8619 (Staphylococcus aureus): 1.56 µg/mL (≈ 2.42 µM); MIC Staphylococcus aureus MS 8684 (Staphylococcus aureus): 1.56 µg/mL (≈ 2.42 µM); MIC Proteus vulgaris (Proteus vulgaris): 0.78 µg/mL (≈ 1.21 µM); MIC Klebsiella pneumoniae GN 917 (Klebsiella pneumoniae [6]): 1.56 µg/mL (≈ 2.42 µM); MIC Klebsiella pneumoniae GN 4081 (Klebsiella pneumoniae [6]): 3.13 µg/mL (≈ 4.86 µM)
